Where “and” joins values, the source holds several entries; their conditions need not be identical. Equal values may be shown once. Where a name gives a salt, the structure may show the parent alone.
How the values were obtained:
Assay type in all cases: physicochemical
[1] = Sphericity by optical microscope images and image processing software (Buehler Omnimet)
Procedure: Thus, denoting the area of the image by A and the perimeter of the image by P, the sphericity, s, can be defined as s=4πA/P^2. As will be appreciated by one of ordinary skill in the art, when the image is a perfect circle, A=π(P/2π)^2=P^2/4π and s=1. When the area of the image is 0 (i.e., the image is a line or a curve) s=0. The samples were imaged through a transmission optical microscope (magnification: ×12.5). The images were analyzed by image processing software (Buehler Omnimet®). Each image processing comprised the following steps. In a first step the particles were delineated for 1 cycle; in a second step, dark areas were defined by thresholding; in a third step, the dark areas were filled; in a fourth step, particles smaller than 20×20 pixels were eliminated; in a fifth step border particles were eliminated; and in a sixth step the delineation of the non-eliminated particles were processed by the octagonal kernel of the software for 3 cycles. FIG. 19 is an image showing the raw sucrose particles after image processing. Following image processing the area, A, and perimeter, P, of each particle was measured from the images. The sphericity of each particle was defined as 4πA/P^2.

[2] = Shape factor and aspect ratio by DSA-10 image analyzer; conditions: samples (i)-(iii); for shape factor: 4πA/P^2 by DSA-10 during constant flow of slurry; for aspect ratio: minimal Feret / maximal Feret
Procedure: The sphericity of the particles was also measured using a DSA-10 image analyzer (Ankersmid Ltd., Israel). The analysis was performed during constant flow of slurry containing the particles. Images of about 1000 particles were analyzed by the image analyzer to determine the sphericity of the particles. In these measurements the sphericity was also as defined 4πA/P^2. To distinguish between the sphericity values obtained as determined using the image processing software and the sphericity values obtained using the image analyzer, the latter are referred to below as “shape factor”.
Beside sphericity, the DSA-10 image analyzer was used to characterize the shape of the particles by their aspect ratio, defined as the ratio between the minimal Feret and the maximal Feret of the particles.

[3] = Angle of repose test on tilted smooth tile; conditions: tile tilted 1° at a time; angle at which first particles slide
Source text: Another definition of the angle of repose is the maximum angle of tilt of a bed of the powder beyond which the powder cannot retain a static pose. To measure the angle of repose according to this definition, the powder of the present embodiments can be placed on a smooth solid bed surface. The bed surface can then be tilted very slowly about the horizontal axis to a maximum angle without the particles sliding. When the bed surface is tilted beyond the maximum angle, sliding occurs, and the angle of the bed surface to the horizontal once the particles begin sliding is defined as the angle of repose. An angle of repose measured by this technique is oftentimes referred to as tilting angle of repose.
The diltiazem hydrochloride particles were subjected to an angle of repose test. The particles were placed on a smooth tile positioned horizontally. The tile was tilted slowly each time at 1° about the horizontal axis. The angle of repose was defined as the angle at which the first particles had slide.

[4] = Flow rate test with Hall flow meter; conditions: 5 millimeter diameter nozzle tilted at an angle of 30°
Source text: The flowability of the powder of the present embodiments can also be characterized by its flow rate at certain conditions. The flowability can be measured using a suitable flow meter, such as, but not limited to, a Hall flow meter. Thus, according to a preferred embodiment of the present invention the powder of the preset embodiments is capable of maintaining a flow rate of at least 6, more preferably at least 8, more preferably at least 10 gram per square centimeter per second, through a 5 millimeters nozzle tilted at an angle of 30°.
The metformin particles were subjected to a flow rate test using a Hall flow meter having a 5 millimeter diameter nozzle. The nozzle was tilted at an angle of 30°.

[5] = Surface smoothness from particle images (Scanning Electron Microscopy); conditions: as shown in images of the particles
Procedure: An additional estimate of the particles' smoothness was performed by analyzing the samples via Scanning Electron Microscopy (SEM). FIGS. 9A-C are images of the raw sucrose particles (FIG. 9A), sucrose particles of the present embodiments (FIG. 9B) and the prior art particles (FIG. 9C).

[6] = BET specific surface area measurement (TriStar 3000 analyzer)
Procedure: A BET surface of the particle refers to a surface measured using a method developed by Brunauer, Emmett and Teller and commonly referred to as BET method. According to the BET method, the surface area is determined by allowing the surface to interact with nitrogen molecules and analyzing the corresponding adsorption curves. The BET method is well known in the art and is found in many publications (to this end see, e.g., S. J. Gregg and K. S. Sing, “Adsorption, Surface Area and Porosity”, Academic Press, London, 1995).
Following drying, a sample of the formed sucrose particles was subjected to BET measurement using a TriStar 3000 analyzer (Micromeritics, Georgia, USA), to obtain a specific surface area for the particles (surface area per unit mass). An averaged value of 0.03 m^2/gr was measured. For comparison, the specific surface area of a sample of prior art particles of similar size (355-500 micrometer Suglets®, purchased from NP Pharm, France), was also measured. The specific surface area of the particles of this sample was 0.27 m^2/gr. Thus, the sucrose particles produced according to the teaching of the present embodiments of the invention are characterized by a specific surface area which is about 9 times smaller than the specific surface area characterizing the prior art. As the average size of the samples was similar, the specific surface was used as a measure of the smoothness of the particles.

[7] = Ratio of optical surface area to BET surface area / rugosity
Source text: In an additional embodiment, the smoothness is defined by a ratio between an optical surface area of the particle and a BET surface area thereof.
An optical surface area of the particle is the surface area of the particle as measured optically. Such measurement can be performed, for example, by obtaining an image of the particle using an optical microscope and estimating its surface area, by approximating the shape of the particle to a symmetrical shape. For example, when the shape of the particle is similar to a sphere, its optical surface area can be approximated by 4πR^2, where R is the radius of the particle, as measured from the image. When the shape of the particle is similar to a spheroid, having a long axis a and an aspect ratio of ε, its surface area can be approximated by 2πa^2 ε (ε+t/b), where b is given by b^2=1−ε^2, and t (in radians) is given by sin(t)=b. As will be appreciated by one ordinarily skilled in the art the aspect ratio can also be approximated as the square root of the sphericity defined above.
A BET surface of the particle refers to a surface measured using a method developed by Brunauer, Emmett and Teller and commonly referred to as BET method. According to the BET method, the surface area is determined by allowing the surface to interact with nitrogen molecules and analyzing the corresponding adsorption curves. […]

[8] = 4πA/P^2, Table 1, magnification ×12.5
[9] = Table 2, samples (i)-(iii), hydrochloride

Row | Compound | shape factor ([2]; hydrochloride) | aspect ratio ([2]; hydrochloride) | sphericity [1, 9] | shape factor [2] | aspect ratio [2] | sphericity ([1]; Table 2, samples (i)-(iii)) | further results
1 | OC[C@H]1O[C@@](CO)(O[C@H]2O[C@H](CO)[C@@H](O)[C@H](O)[C@H]2O)[C@@H](O)[C@@H]1O [raw sucrose, sucrose, reference compound] | – | – | – | – | – | – | sphericity [1, 8]: 0.773 ± 0.05
2 | COc1ccc([C@@H]2Sc3ccccc3N(CCN(C)C)C(=O)[C@@H]2OC(C)=O)cc1.Cl [raw dilitiazem hydrochloride, diltiazem hydrochloride, reference compound] | 0.7032 and 0.7056 and 0.6847 | 0.5416 and 0.5442 and 0.5293 | 0.5278 and 0.4773 and 0.4954 | – | – | – | angle of repose [3]: 48 °
3 | COc1ccc([C@@H]2Sc3ccccc3N(CCN(C)C)C(=O)[C@@H]2OC(C)=O)cc1.Cl [rounded dilitiazem hydrochloride above 45 μm] [diltiazem hydrochloride] | 0.8229 and 0.8211 and 0.8368 | 0.7015 and 0.6986 and 0.7053 | 0.6572 and 0.6601 and 0.6940 | – | – | – | –
4 | COc1ccc([C@@H]2Sc3ccccc3N(CCN(C)C)C(=O)[C@@H]2OC(C)=O)cc1.Cl [rounded dilitiazem hydrochloride 20-45 μm] [diltiazem hydrochloride] | 0.8426 and 0.8168 and 0.8467 | 0.6915 and 0.6935 and 0.6947 | 0.5106 and 0.5220 and 0.5139 | – | – | – | –
5 | NC(=O)N1c2ccccc2CC(=O)c2ccccc21 [raw oxcarbazepine, oxcarbazepine, reference compound] | – | – | – | 0.7789 and 0.7908 and 0.7886 | 0.6102 and 0.6062 and 0.6221 | 0.4997 and 0.4760 and 0.4144 | –
6 | CN(C)C(=N)N=C(N)N [rounded metformin, metformin] | – | – | – | 0.8719 and 0.8739 and 0.8843 | 0.6791 and 0.6740 and 0.6904 | 0.7634 and 0.7676 and 0.7344 | flow rate ([4]; listed as rounded metformin particles): 10.2 gr/(cm^2×s); surface of the particles (image) [5]: substantially smooth
7 | OC[C@H]1O[C@@](CO)(O[C@H]2O[C@H](CO)[C@@H](O)[C@H](O)[C@H]2O)[C@@H](O)[C@@H]1O [rounded 300-600 μm sucrose, sucrose] | – | – | – | – | – | – | specific surface area (surface area per unit mass), BET ([6]; dried powder sample, averaged value): 0.03 m^2/gr; BET specific surface ([6]; particles whose average diameter is about 400 micrometer): about 0.03 gr/m^2; specific surface area, times smaller than prior art ([6]; versus 355-500 micrometer Suglets of similar size): about 9 times; rugosity ([7]; corresponds to optical/BET surface area ratio): 1.5-3; optical specific surface area ([7]; spherical or spherical-like particle, diameter about 400 micrometer): 0.01 to 0.02 m²/g; surface of the particles (image) [5]: substantially smooth; sphericity [1, 8]: 0.875 ± 0.027
8 | NC(=O)N1c2ccccc2CC(=O)c2ccccc21 [rounded oxcarbazepine, oxcarbazepine] | – | – | – | 0.8138 and 0.7996 and 0.8174 | 0.5875 and 0.5887 and 0.5829 | 0.6103 and 0.5707 and 0.4969 | –
9 | COc1ccc([C@@H]2Sc3ccccc3N(CCN(C)C)C(=O)[C@@H]2OC(C)=O)cc1.Cl [rounded dilitiazem hydrochloride mix 20-45 μm + 45 μm] [diltiazem hydrochloride] | 0.8383 and 0.8419 and 0.8279 | 0.6828 and 0.6923 and 0.6731 | 0.5315 and 0.6004 and 0.5942 | – | – | – | –
10 | COc1ccc([C@@H]2Sc3ccccc3N(CCN(C)C)C(=O)[C@@H]2OC(C)=O)cc1 [diltiazem hydrochloride] | – | – | – | – | – | – | surface of the particles (image) [5]: substantially smooth; angle of repose [3]: 38 °
11 | CN(C)C(=N)N=C(N)N [raw metformin, metformin, reference compound] | – | – | – | 0.8244 and 0.8214 and 0.8404 | 0.6900 and 0.6434 and 0.6420 | 0.6146 and 0.5675 and 0.5720 | flow rate ([4]; listed as raw metformin particles): no flow was observed
